Values quoted from earlier work in patent US6700032B1, “Wound care management” (Leatherite Pty Limited, priority 1996, dated 2004).

Details: recommended concentrations

2,4,4′-trichloro-2′-hydroxy diphenyl ether [Triclosan]
toxicological testing: safe at recommended concentrations
